The record followed here is ChEMBL document CHEMBL3792352, “3D-QSAR-aided design, synthesis, in vitro and in vivo evaluation of dipeptidyl boronic acid proteasome inhibitors and mechanism studies” (Bioorg Med Chem, 2016).

SMILES strings stand for the structures.

The nature of data set [1]: AUClast in Sprague-Dawley rat at 0.2 mg/kg, ig through feeding tube by LC/MS/MS analysis. Type of data set: ADME, organism-based. More on the design: dose 0.2 mg/kg, route intragastric, time 0 - last. The note with it: in vivo, po.
Data set [2] concerns Rattus norvegicus. In words: Elimination half life in Sprague-Dawley rat at 0.2 mg/kg, ig through feeding tube by LC/MS/MS analysis. The note with it: in vivo, po. Type of data set: ADME, organism-based.
The nature of data set [3]: Cytotoxicity against human U266B1 cells assessed as cell viability after 72 hrs by CellTiter 96 aqueous one solution cell proliferation assay. Format: functional, U-266.
Data set [4] has as its system Rattus norvegicus. The experiment in a line: Cmax in Sprague-Dawley rat at 0.2 mg/kg, ig through feeding tube by LC/MS/MS analysis. Format: ADME, organism-based. More on the design: dose 0.2 mg/kg, route intragastric. To be noted: in vivo, po.
Data set [5] is described as follows: Cytotoxicity against human ARH77 cells assessed as cell viability after 72 hrs by CellTiter 96 aqueous one solution cell proliferation assay. Type of data set: functional, ARH-77.
A short description of data set [6]: AUClast in Sprague-Dawley rat at 1 mg/kg, caudal iv by LC/MS/MS analysis. Format: ADME, organism-based. More on the design: dose 1 mg/kg, route intravenous, time 0 - last. The note with it: in vivo.
Data set [7] is described as follows: Elimination half life in Sprague-Dawley rat at 1 mg/kg, caudal iv by LC/MS/MS analysis. Type of data set: ADME, organism-based. The note with it: in vivo, read-out: beta t1/2 (converted).
The test system of data set [8] is Rattus norvegicus. The experiment in a line: AUC(0 to infinity) in Sprague-Dawley rat at 0.2 mg/kg, ig through feeding tube by LC/MS/MS analysis. The note with it: in vivo, po. Type of data set: ADME, organism-based. Also on record: dose 0.2 mg/kg, route intragastric, time infinity.
Data set [9] is described as follows: AUC(0 to infinity) in Sprague-Dawley rat at 1 mg/kg, caudal iv by LC/MS/MS analysis. Format: ADME, organism-based. Also on record: dose 1 mg/kg, route intravenous, time infinity. The note with it: in vivo.
A short description of data set [10]: Cell cycle arrest in human U266 cells assessed as accumulation at G2/M phase at 10 nM by propidium iodide/RNase staining based flow cytometric analysis (reference value: 12.33 %). Type of data set: functional. To be noted: U-266. A general note: In flow cytometry, cells or beads pass a laser one at a time.
The subject of data set [11] is Rattus norvegicus. The experiment in a line: Tmax in Sprague-Dawley rat at 0.2 mg/kg, ig through feeding tube by LC/MS/MS analysis. Type of data set: ADME, organism-based. The note with it: in vivo, po.
Data set [12] can be described thus: Cmax in Sprague-Dawley rat at 1 mg/kg, caudal iv by LC/MS/MS analysis. More on the design: dose 1 mg/kg, route intravenous. Type of data set: ADME, organism-based. The note with it: in vivo.
A short description of data set [13]: Cell cycle arrest in human U266 cells assessed as accumulation at S phase at 10 nM by propidium iodide/RNase staining based flow cytometric analysis (reference value: 29.47 %). Type of data set: functional. The note with it: U-266.
Data set [14] is described as follows: Cytotoxicity against human RPMI8226 cells assessed as cell viability after 72 hrs by CellTiter 96 aqueous one solution cell proliferation assay. Type of data set: functional, RPMI-8226.
The target in data set [15] is T1, Proteasome Macropain subunit MB1 (Homo sapiens, UniProt P28074).
T1 sequence (P28074 whole entry): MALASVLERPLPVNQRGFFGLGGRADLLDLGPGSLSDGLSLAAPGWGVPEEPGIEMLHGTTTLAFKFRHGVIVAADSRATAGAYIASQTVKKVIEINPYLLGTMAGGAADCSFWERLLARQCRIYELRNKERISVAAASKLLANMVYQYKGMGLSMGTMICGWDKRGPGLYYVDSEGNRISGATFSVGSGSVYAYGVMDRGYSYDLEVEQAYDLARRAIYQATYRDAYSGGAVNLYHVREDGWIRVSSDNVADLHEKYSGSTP
In words: Inhibition of chymotrypsin like activity of human 20S proteasome using Suc-Leu-Leu-Val-Tyr-AMC as substrate preincubated for 10 mins followed by substrate addition measured after 1 hr by spectrofluorimetric analysis. To be noted: read-out: IC50.

Data set [16] in a line: Cell cycle arrest in human U266 cells assessed as accumulation at G1 phase at 10 nM by propidium iodide/RNase staining based flow cytometric analysis (reference value: 58.21 %). Type of data set: functional. To be noted: U-266.
Data set [17] can be described thus: MRTlast in Sprague-Dawley rat at 1 mg/kg, caudal iv by LC/MS/MS analysis. Type of data set: ADME, organism-based. The note with it: in vivo.
Data set [18] in a line: MRTlast in Sprague-Dawley rat at 0.2 mg/kg, ig through feeding tube by LC/MS/MS analysis. To be noted: in vivo, po. Type of data set: ADME, organism-based.

Turning to `COc1ccc(C[C@H](NC(=O)c2cc(Cl)ccc2Cl)C(=O)N[C@@H](CC(C)C)B(O)O)c(OC)c1`, the values for the area under the curve AUC(0-t) in data set [1] and in [6] were 407 ng·h/mL and 47.9 ng·h/mL, respectively. The “beta t1/2” value in data set [2] turned out to be 0.2 h. Besides, the Activity was 18.66% in [3]; 14.58% in data set [5]; 21.5% in data set [10]; 34.8% in data set [13]; 37.78% in [14]; 43.7% in data set [16]. The peak concentration (Cmax) (commonly the peak of the concentration-time curve) in data set [4] was determined as 245 ng/mL; in data set [12] it was 7.83 ng/mL. The half-life in data set [7] was 7.24 h. Besides, the AUC (in general, the area under the concentration-time curve, a measure of exposure) in [8] came to 408 ng·h/mL. In data set [9], the AUC(0-inf) (as a rule, the area under the concentration-time curve extrapolated to infinity) stood at 83 ng·h/mL. In addition, the Tmax (usually the time from dosing to the highest level) in [11] came out at 1.8 min. Besides, the IC50 (commonly the concentration that gives 50% inhibition) in data set [15] stood at 4.6 nM. Further, the MRT last (commonly the average time that molecules of a dose stay in the body) in data set [17] was found to be 8.44 h; in [18], 6.9 h.
